Source: patent publication US7704502B2, “Combinations of antibodies selective for DR5 and other therapeutic agents” (The UAB Research Foundation, priority 2000, dated 2010)
Residues, ends and D or L forms follow the SMILES beside them. *: point of attachment. Cbz = O=C(OCc1ccccc1)*; CH2F = FC*

How the values were obtained:
2LMP xenografts = test: Analysis of apoptosis in xenografts (TUNEL); assay type: in vivo, athymic nude mice; conditions: day 14
Protocol: One group of mice was untreated. The xenografts were dissected for the study of apoptosis on day 14 after tumor cell injection. The reason for the substantial reduction in treatment intensity compared to our standard treatment protocol was to allow adequate tumor tissue for analysis on day 14. Tunel assay for apoptosis in tumor xenografts was performed as follows. Five-micron paraffin sections of tissue were mounted on Superfrost/Plus slides and heated at 58° C. for 1 h. Tissue sections were deparaffinized in three changes of xylene and rehydrated with one change of absolute ethanol, 95% ethanol, and 70% ethanol, each in 5-min increments. Then, the sections were placed in Tris-buffered saline (0.5M Tris base, 0.15 M NaCl, 0.0002% Triton X-100™, pH 7.6). Apoptotic nuclei were detected using an Apop Tag Peroxidase kit (Intergen, Purchase, N.Y.). Proteinase K (20 μg/ml in distilled deionized H2O) was added to the tissue specimens and incubated at room temperature for 15 min. Endogenous peroxidases were quenched with an aqueous solution of 3% hydrogen peroxide for 5 min. Sections were treated with an equilibration buffer for 30 min and then incubated with the TdT/enzyme (diluted in labeling reaction mix) for 1 h at 37° C. using parafilm covers. During this incubation, the TdT enzyme binds the 3′-OH ends of DNA fragments and catalyzes the addition of digoxigenin-labeled and unlabeled deoxynucleotides. Negative controls were incubated with distilled H2O (diluted in labeling reaction mix) instead of the TdT enzyme. A stop buffer was added for 10 min at room temperature to terminate the labeling reaction. An anti-digoxigenin conjugate was added to each slide for 30 min. The chromagen 3,3′ DAB was used to visualize the labeled 3′ OH end of DNA fragments. The slides were then rinsed in deionized water and lightly counterstained with hematoxylin, dehydrated using graded alcohols and xylene and coverlsipped using Permount. Approximately 10 random fields were evaluated for percentage of Tunel stained and percentage of intensely stained apoptotic bodies throughout the tissue.

[1] = test system: 2LMP human breast cancer xenografts; test: TRA-8 therapy alone or with chemotherapy or radiation, breast cancer xenografts; assay type: in vivo, athymic nude mice
Protocol: Athymic nude mice were injected s.c. with 3×10^7 2LMP cells. […] The growth of tumors was monitored over time. […] Tumor size and regression rates were determined.
Data from 6 independent experiments were analyzed by individual experiment. Treatment combinations were compared with respect to in vivo anti-tumor efficacy, i.e., inhibition of tumor growth, which was measured as three endpoints; extension of tumor doubling times, percentage of tumor regressions, and growth rates over time. The actual number of days at which the tumor doubled in surface area (product of two diameters) relative to baseline on day 7 after tumor cell injection was used in the doubling time analysis. The nonparametric Kruskal-Wallis test was used for median tumor doubling time comparisons between treatments. Fisher's exact test was used to compare the proportions of tumor regressions and relapse-free regressions across treatment groups. To determine if any combination therapy produced significant synergistic inhibition of tumor growth, i.e., more than additive, the growth curves from the serial area measurements were compared using a linear mixed model approach over the first 3 weeks after start of therapy (Lindsey, J. K. Models for Repeated Measurements, pp. 100-142, Oxford, 1993). To test for synergistic effects of the combination therapies, an interaction term was included in the model. If the interaction term was significant and the effect was inhibition of growth at a rate greater than additive then the interaction was considered synergistic.
A total of 166 animals, 10 treatment groups, and 6 independent experiments were included in the aggregate analysis. Treatment combinations were compared with respect to in vivo anti-tumor efficacy. The median tumor doubling times were analyzed using the Kruskal-Wallis test and Fisher's exact test was used to compare the proportions of tumor regressions and relapse-free regressions across treatment groups.

Jurkat cells = test: Jurkat cell viability after overnight culture (ATPLite, MTT, PI exclusion); assay type: cell-based, human; conditions: 50 ng/ml TRA-8 overnight plus caspase inhibitor
Protocol: (§1) Cell viability is determined using (1) the ATPLite® kit according to the manufacturer's instructions (Packard Instruments, Meriden, Conn.); (2) the MTT Cell proliferation/viability kit (Sigma); or (3) PI staining of dead cells and analyzed by flow cytometry. At end of culture, cells are stained with 10 μg/ml PI and PI negative cells are gated as viable cells. For analysis of condensed nuclei of hepatocytes, cells are stained with 10 ng/ml Hoechst 33352 (Molecular Probes) and analyzed by flow cytometry.

MMP-1, 3, and 13 = test: Production of MMPs by RA synovial cells (ELISA); assay type: cell-based, human; conditions: overnight; 50 ng/ml interleukin 1b, 10 ng/ml TNF-a, 50 ng/ml TRAIL or TRA-8; vs medium control
Protocol: Thus, it is possible that TRAIL, like TNF-α, may serve as a pro-inflammatory cytokine. […] The levels of the MMP-1 and MMP-3 in the culture supernatants are determined by the ELISA kits.

NF-κb = test: Gel-shift assay of NF-κb activation in RA synovial cells; assay type: cell-based, human; conditions: 50 ng/ml TRAIL, Fas ligand or TRA-8; 20 ng/ml TNF-a
Protocol: There is considerable evidence to support the concept that there are close links between the signaling of apoptosis and the signaling of proliferation (45). It has been established that DR5 is able to activate a NF-kb pathway in addition to apoptosis signaling transduction, and that NF-κb activation may be able to transduce an anti-apoptosis signal. Therefore a gel-shift assay is carried out. […] The nuclear extracts are prepared and incubated with the […] [^32P]-labeled oligo-DNA probe. The results are analyzed using the cyclone phospha-imager (TopCount NXT, Packard Instrument Company, CT).

DR4 = target: T1, DR4 (Homo sapiens, UniProt O00220); test: ELISA binding of TRAIL and TRA-8 to the receptors
T1 construct: a fusion protein comprising the extracellular domain of human DR5 or DR4 and the Fc region of human IgG1; human IgG1 Fc (Ig)
Protocol: ELISA plates are coated with 2 μg/ml of DR4-Ig or DR5-Ig fusion protein overnight. […] The reactions are developed by TMB substrate buffer and measured by the Benchmark Microplate Reader (BioRad). The Kd values are estimated by the one-site binding model of non-linear regression using GraphPad Prism® software (GraphPad Software, San Diego, Calif.).

[2] = test system: non-transformed fibroblast cells; test: Apoptosis of fibroblast cells; assay type: cell-based
normal human hepatocytes = test: Hepatocellular toxicity, cell viability (ATPLite); assay type: cell-based
From the text: For 24-hour cell viability assays, fresh normal human hepatocytes in 96-well plates were purchased from In Vitro Technology (Baltimore, Md.). […] For 6-hour viability assays, normal hepatocytes or hepatocellular cancer cells are isolated from fresh surgical specimens collected from UAB Tissue Procurement Center. All reagents for isolation of human hepatocytes including hepatocytes perfusion buffer, digest medium, washing medium, and attachment medium were purchased from Gibco. The tissue slides are digested in the Hepatocyte Digest Medium at 37° C. with shaking (50 rpm) for one hour. The isolated hepatocytes are harvested by low speed centrifugation (50 g, 3 min), and washed with the Hepatocyte Washing Medium six times. Single cell suspension of hepatocytes are cultured in the Attachment Medium containing 10% FCS in 96-well Matrigel plates (BD) for six hours. Non-attached hepatocytes are removed by twice washing with pre-warmed attachment medium.

[3] = Induction of hepatitis in vivo by tetracycline-inducible adenoviral vectors; parameters: species or system B6 mice; conditions: 10 μg in Ad/TRAIL inoculated mice, AST at 24 hours
Protocol: 8-10 week-old female B6 mice are intravenously injected with 10^9 pfu of Ad/hTRAIL with the equal number of Ad/Tet-on. Mice are fed with different concentrations of tetracycline in their drinking water immediately after inoculation of adenoviral vectors. Liver injury is determined by serum levels of AST using an AST diagnostic kit (Sigma). Expression of TRAIL is determined by Northern blot analysis.

[4] = test system: RA-1014, RA-811, RA-716, and RA929; test: Apoptosis of primary synovial cells; assay type: cell-based, human; conditions: high concentrations (>50 ng/ml)
From the text: (§2) Cell viability is the percentage of the cpm of treated cells versus the cpm of untreated cells.
(§3) The expression of DR5 on a panel of eight primary cultured synovial cells from patients with RA is compared with that on eight primary cultured synovial cells from patients with osteoarthritis (hereinafter referred to as “OA”). The eight human primary RA synovial cell cultures RA-1014, RA-1016, RA-1021, RA-512, RA-707, RA-811, RA-716, and RA-929 are kindly provided by Dr. M. Ohtsuki (Sankyo Co. Ltd., Tokyo, Japan) and cultured in DMEM supplemented with 10% FCS, penicillin, streptomycin, and glutamine. The […] OA synovial cell primary cell cultures are isolated from the synovial tissues of OA patients by a standard collagenase method and cultured under the same conditions. The passage number of all primary cells is under 10. The expression of DR5 is determined by FACs analysis as described in Example 5.

OA72M cells = test: Apoptosis of primary synovial cells; assay type: cell-based, human
From the text: as §2, §3

HepG2 cells = test: Cell viability (ATPLite); assay type: cell-based, human; conditions: 8-hour culture period
[5] = test system: SV40 transformed synovial cells; test: Apoptosis of synovial cells; assay type: cell-based, human; conditions: data not shown
Molt-4 and U937 cells = test: Apoptosis susceptibility (ATPLite, overnight); assay type: cell-based, human; conditions: TRAIL plus crosslinker
Protocol: as §1

U87, U937 and Molt-4 = test: Apoptosis susceptibility (ATPLite, overnight); assay type: cell-based, human
Protocol: as §1

Daudi = test: Apoptosis susceptibility (ATPLite, overnight); assay type: cell-based, human; conditions: TRAIL plus crosslinker
Protocol: as §1

H-9 cells = test: Apoptosis susceptibility (ATPLite, overnight); assay type: cell-based, human; conditions: TRAIL plus crosslinker
Protocol: as §1

[6] = test system: Primary peripheral blood T cells; test: Apoptosis susceptibility (ATPLite, overnight); assay type: cell-based, human; conditions: TRAIL plus crosslinker
Protocol: as §1

Jurkat and CEM-6 = test: Apoptosis susceptibility (ATPLite, overnight); assay type: cell-based, human; conditions: TRAIL plus crosslinker
Protocol: as §1

[7] = test system: B lymphoma cell lines SKW6.4, EB-3, and Raji; test: Apoptosis susceptibility (ATPLite, overnight); assay type: cell-based, human; conditions: TRAIL plus crosslinker
Protocol: as §1

[8] = test system: glioma cell lines Hs683 and U251-MG; test: Apoptosis susceptibility (ATPLite, overnight); assay type: cell-based, human
Protocol: as §1

primary B cells = test: Apoptosis susceptibility (ATPLite, overnight); assay type: cell-based, human; conditions: TRAIL plus crosslinker
Protocol: as §1

DR5 = target: T2, DR5 (Homo sapiens, UniProt O14763); test: ELISA binding of TRAIL and TRA-8 to the receptors
T2 construct: fusing cDNA from residues 1-180 of the extracellular portion of DR5; made in house; host or cells: QBI-293A cells, recombinant adenovirus (pAdΔDR5-Fc)
From the text: The reactions are developed by TMB substrate buffer and measured by the Benchmark Microplate Reader (BioRad). The Kd values are estimated by the one-site binding model of non-linear regression using GraphPad Prism® software (GraphPad Software, San Diego, Calif.).

[9] = aggregate of 6 experiments, number of animals (%)
[10] = aggregate of 6 experiments, relative to day 7

T2 sequence (O14763 56-180): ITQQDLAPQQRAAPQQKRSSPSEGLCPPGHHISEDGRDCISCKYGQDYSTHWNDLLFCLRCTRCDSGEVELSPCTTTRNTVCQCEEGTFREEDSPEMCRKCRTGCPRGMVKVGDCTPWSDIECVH
T1 sequence (O00220 24-239 limits assumed): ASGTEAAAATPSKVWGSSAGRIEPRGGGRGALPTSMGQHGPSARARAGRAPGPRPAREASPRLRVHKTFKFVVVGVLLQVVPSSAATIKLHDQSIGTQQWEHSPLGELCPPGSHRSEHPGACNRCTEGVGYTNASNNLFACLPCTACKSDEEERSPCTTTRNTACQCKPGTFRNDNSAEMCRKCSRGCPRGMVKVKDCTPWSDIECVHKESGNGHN

COc1cccc2c1C(=O)c1c(O)c3c(c(O)c1C2=O)C[C@@](O)(C(=O)CO)C[C@@H]3O[C@H]1C[C@H](N)[C@H](O)[C@H](C)O1 [Adriamycin, adriamycin (doxorubicin)]
TUNEL stained cells (2LMP xenografts; 100 μg TRA-8 days 7, 10, adriamycin 3 mg/kg or paclitaxel 10 mg/kg days 8, 11, untreated 4%): 8%
intensely stained cells (2LMP xenografts; same regimen, untreated 1%): 6%
Complete Regressions No relapse (%) [1, 9]: 0
Complete Regressions Total (%) [1, 9]: 0
Tumor Doubling Time (mean) [1, 10]: 17 days
Tumor Doubling Time (median) [1, 10]: 18 days
inhibition of tumor growth compared to untreated controls ([1]; individual experiments, TRA-8 200 μg i.p. x6, adriamycin 6 mg/kg, paclitaxel 20 mg/kg, 3 Gy 60Co, Kruskal-Wallis on doubling times): did not differ from controls

CC(NC(=O)C(NC(=O)OCc1ccccc1)C(C)C)C(=O)NC(CC(=O)O)C(=O)CF (stereo not drawn) [Z-VAD] (Cbz-Val-Ala-Asp-CH2F; configuration not given here)
inhibition of TRA-8-induced cell death (Jurkat cells): completely inhibited

IL-1b: proinflammatory cytokine
production/release of MMPs (MMP-1, 3, and 13): increased

TNF-α
NF-κb activation (NF-κb): activated in a time-dependent fashion
production/release of MMPs (MMP-1, 3, and 13): increased

TRAIL: soluble recombinant human TRAIL (aa 95 to 281) FLAG-tagged fusion protein, Alexis; used with anti-FLAG crosslinker
binding to DR4 (DR4): bound to DR4
susceptibility to apoptosis [2]: resistant
hepatocytes killed in the presence of cycloheximide (normal human hepatocytes; 1 μg/ml TRAIL or TRA-8, 1 μg/ml cycloheximide, four-hour culture): greater than 70%
hepatocytes killed (normal human hepatocytes; 1 μg/ml, end of 24-hour culture, TRAIL plus crosslinker): more than 80%
hepatocytes killed (normal human hepatocytes; 6-hour culture, 500 ng/ml): Over 20%
liver injury after intravenous injection [3]: did not exhibit increased liver injury
NF-κb activation (NF-κb): activated in a time-dependent fashion
cell death [4]: ~100%
susceptibility to apoptosis (OA72M cells): completely resistant
cells killed (HepG2 cells): ~100%
susceptibility to apoptosis [5]: susceptible
susceptibility to apoptosis (Molt-4 and U937 cells): partially susceptible
susceptibility to apoptosis (U87, U937 and Molt-4): exhibited sensitivity
susceptibility to apoptosis (Daudi): much less susceptible
susceptibility to apoptosis (H-9 cells): resistant
susceptibility to apoptosis [6]: resistant
susceptibility to apoptosis (Jurkat and CEM-6): highly susceptible
susceptibility to apoptosis [7]: very susceptible
susceptibility to apoptosis [8]: resistant
susceptibility to apoptosis (primary B cells): did not undergo apoptosis
binding to immobilized DR5 (DR5): bound comparably
production/release of MMPs (MMP-1, 3, and 13): not associated with increased release

B1: Fas ligand: soluble Fas ligand used with enhancer/crosslinker (protein, UniProt P48023 103-281, looked up)
extracellular domain: QLFHLQKELAELRESTSQMHTASSLEKQIGHPSPPPEKKELRKVAHLTGKSNSRSMPLEWEDTYGIVLLSGVKYKKGGLVINETGLYFVYSKVYFRGQSCNNLPLSHKVYMRNSKYPQDLVMMEGKMMSYCTTGQMWARSSYLGAVFNLTSADHLYVNVSELSLVNFEESQTFFGLYKL
modifications: extracellular domain
notes: soluble Fas ligand used with enhancer/crosslinker
difference in susceptibility among normal hepatocytes, hepatocellular carcinoma cells, and HepG2 cells (normal human hepatocytes; Fas-mediated apoptosis, 6 hours): no significant difference
NF-κb activation (NF-κb): unable to induce
